These results are taken from patent US10166216B2 (Rigel Pharmaceuticals, Inc., priority 2006, dated 2019).

The target of the assay is Axl (Homo sapiens (Human), UniProt P30530). The assay is described as follows: Phospho-Akt in-cell Western assay (Axl-antibody cross-linking stimulation). The assay is classed as cell-based. To be noted: inhibition of Axl activity. Summed up: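 HeLa cells on poly-L-lysine, starved 24 hrs with Axl/Fc, pre-treated with compound 1 hr at 37° C., then stimulated 5 min with Axl primary/secondary antibody cluster. Fixed cells probed for phospho-Akt by chemiluminescent in-cell Western; signal normalized to crystal violet cell number.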

[1] abbreviates: phospho-Akt in-cell Western assay.
The mark [2] stands for this setting: Hela cells, phospho-Akt readout, Table 1, formula (Ia1).

Usually IC50 stands for the concentration at which inhibition is half-maximal.

Axl, sequence (P30530 26-894): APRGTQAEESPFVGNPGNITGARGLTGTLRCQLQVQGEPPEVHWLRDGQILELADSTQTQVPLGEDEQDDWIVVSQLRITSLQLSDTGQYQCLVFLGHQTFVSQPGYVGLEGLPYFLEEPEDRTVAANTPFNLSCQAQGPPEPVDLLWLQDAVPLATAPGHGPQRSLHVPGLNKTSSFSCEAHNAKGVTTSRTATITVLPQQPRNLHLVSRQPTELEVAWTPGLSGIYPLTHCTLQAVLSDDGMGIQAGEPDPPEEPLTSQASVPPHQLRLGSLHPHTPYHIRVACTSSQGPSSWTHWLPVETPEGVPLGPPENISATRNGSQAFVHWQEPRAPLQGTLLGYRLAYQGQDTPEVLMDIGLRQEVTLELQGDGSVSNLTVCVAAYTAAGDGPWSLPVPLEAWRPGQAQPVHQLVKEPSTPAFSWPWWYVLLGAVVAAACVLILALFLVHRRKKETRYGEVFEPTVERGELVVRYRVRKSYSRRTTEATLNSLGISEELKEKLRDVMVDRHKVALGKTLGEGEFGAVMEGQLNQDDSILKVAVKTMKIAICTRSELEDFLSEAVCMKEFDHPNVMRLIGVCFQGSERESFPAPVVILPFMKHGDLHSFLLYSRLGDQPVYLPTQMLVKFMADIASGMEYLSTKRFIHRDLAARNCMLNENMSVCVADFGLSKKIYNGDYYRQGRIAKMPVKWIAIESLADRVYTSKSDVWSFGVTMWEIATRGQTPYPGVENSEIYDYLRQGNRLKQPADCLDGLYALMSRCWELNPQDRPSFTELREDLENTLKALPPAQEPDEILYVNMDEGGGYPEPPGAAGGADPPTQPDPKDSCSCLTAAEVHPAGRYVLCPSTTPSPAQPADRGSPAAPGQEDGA

`Cc1sc2ncnc(-n3nc(Nc4ccc(N5CCN(C6CC7CCC6C7)CC5)cc4)nc3N)c2c1C` (centres unmarked) [Compound 138, N^3-(4-(4-(bicyclo[2.2.1]heptan-2-yl)piperazin-1-yl)phenyl)-1-(5,6-dimethylthieno[2,3-d]pyrimidin-4-yl)-1H-1,2,4-triazole-3,5-diamine]: under setting [1], the IC50 lay in the range of 1 to 10 µM.
For `Nc1nc(Nc2ccc(OCCN3CCCC3)cc2)nn1-c1ncnc2sc3c(c12)CCCC3` [Compound 61, 1-(5,6,7,8-tetrahydrobenzo[4.,5]thieno[2,3-d]pyrimidin-4-yl)-N^3-(4-(2-(pyrrolidin-1-yl)ethoxy)phenyl)-1H-1,2,4-triazole-3,5-diamine], the concentration for half-maximal inhibition (IC50) under setting [2] is less than 1 µM.
Consider `COc1cc2ncnc(-n3nc(Nc4ccc5c(c4)CCC(N4CCCC4)CC5)nc3N)c2cc1OC` (centres unmarked) [Compound 220, 1-(6,7-dimethoxy-quinazolin-4-yl)-N^3-(7-pyrrolidin-1-yl-6,7,8,9-tetrahydro-5H-benzo[7]annulene-2-yl)-1H-1,2,4-triazole-3,5-diamine], for which, where the note is “Hela cells, phospho-Akt readout, Table 7, formula (Ia4)”, the IC50 is less than 1 µM.
Consider `CC1CCCN1CCOc1ccc(Nc2nc(N)n(-c3nc4ccccc4n3C)n2)cc1` (centres unmarked) [Compound 23, 1-(1-methyl-1H-benzo[d]imidazol-2-yl)-N^3-(4-(2-(2-methylpyrrolidin-1-yl)ethoxy)phenyl)-1H-1,2,4-triazole-3,5-diamine], for which the IC50 under setting [2] was greater than 20 µM.
Regarding `Nc1nc(Nc2ccc(N3CCN([C@H]4C[C@@H]5CC[C@H]4C5)CC3)cc2)nn1-c1ncnc2ccsc12` [Compound 189, 1-(thieno[3,2-d]pyrimidin-4-yl)-N^3-(4-(4-((1S,2S,4R)-bicyclo[2.2.1]heptan-2-yl)-piperazin-1-yl)phenyl)-1H-1,2,4-triazole-3,5-diamine], the IC50 under setting [1] was less than 1 µM.
In the case of `Cc1csc2c(-n3nc(Nc4ccc(C5CCN(C6CC7CCC6C7)CC5)cc4)nc3N)ncnc12` (centres unmarked) [Compound 261, 1-(7-methylthieno[3,2-d]pyrimidin-4-yl)-N^3-(4-(1-(bicyclo[2.2.1]heptan-2-yl)piperidin-4-yl)phenyl)-1H-1,2,4-triazole-3,5-diamine], the IC50 (Hela cells, phospho-Akt readout, Table 5, formula (Ia3)) was less than 1 µM.
Under setting [1], `Cc1csc2c(-n3nc(Nc4ccc(N5CCN([C@H]6C[C@@H]7CC[C@H]6C7)CC5)c(Cl)c4)nc3N)ncnc12` [Compound 242, 1-(7-methylthieno[3,2-d]pyrimidin-4-yl)-N^3-(3-chloro-4-(4-((1S,2S,4R)-bicyclo[2.2.1]heptan-2-yl)piperazin-1-yl)phenyl)-1H-1,2,4-triazole-3,5-diamine] gave an IC50 of less than 1 µM.
In turn, `CN1CCN(c2ccc(Nc3nc(N)nn3-c3ncnc4ccc(Cl)cc34)cc2)CC1` [Compound 86, 1-(6-chloroquinazolin-4-yl)-N^5-(4-(4-methylpiperazin-1-yl)phenyl)-1H-1,2,4-triazole-3,5-diamine] returned an IC50 (Hela cells, phospho-Akt readout, Table 4, formula (Ib2)) of less than 1 µM.
As for `Cc1nnc(-n2nc(Nc3ccc(N4CCN(C5CC6CCC5C6)CC4)cc3)nc2N)c2sccc12` (centres unmarked) [Compound 198, 1-(4-methylthieno[3,2-d]pyridazin-7-yl)-N^3-(4-(4-(bicyclo[2.2.1]heptan-2-yl)-piperazin-1-yl)phenyl)-1H-1,2,4-triazole-3,5-diamine], the IC50 under setting [1] was less than 1 µM.
Molecule `Cc1cc(N2CCN(C3CC4CCC3C4)CC2)ccc1Nc1nc(N)n(-c2nc(Cl)nc3c(C)csc23)n1` (centres unmarked) [Compound 200, 1-(7-methyl-2-chlorothieno[3,2-d]pyrimidin-4-yl)-N^3-(2-methyl-4-(4-(bicyclo[2.2.1]heptan-2-yl)-piperazin-1-yl)phenyl)-1H-1,2,4-triazole-3,5-diamine] displayed an IC50 under setting [1] of 1 to 10 µM.
On the same count and under the same terms, under `Cc1cccc(-c2nc(-n3nc(Nc4ccc(N5CCN(C6CC7CCC6C7)CC5)cc4)nc3N)c3scc(C)c3n2)c1` (centres unmarked) [Compound 233, 1-(7-methyl-2-m-tolylthieno[3,2-d]pyrimidin-4-yl)-N^3-(4-(4-(bicyclo[2.2.1]heptan-2-yl)piperazin-1-yl)phenyl)-1H-1,2,4-triazole-3,5-diamine] stands greater than 20 µM.
